Data reported in ChEMBL document CHEMBL5370539, “Oxazole-4-carboxamide/butylated hydroxytoluene hybrids with GSK-3β inhibitory and neuroprotective activities against Alzheimer's disease” (Eur J Med Chem, 2023).
Calls of active or inactive are those of the source. No cut-off for these calls is given here.

Assays:
PC-12 [1] = assay: Anti-apoptotic activity against H2O2-induced apoptosis in rat PC12 cells assessed as living cells at 10 uM preincubated for 12 hrs followed by replacement with fresh media and H2O2 stimulation for 12 hrs by Annexin-V/7-AAD staining based flow cytometry (Rvb=92.9%); assay type: functional
PC-12 [2] = assay: Neuroprotective activity against rat PC12 cells assessed as decrease in H2O2-induced intracellular Ca2+ level at 10 uM preincubated for 12 hrs followed by replacement with fresh media and H2O2 stimulation for 12 hrs by Fluo-3 AM based flow cytometry relative to control; assay type: functional; parameters: scale not given: the % may be the effect or the level left
PC-12 [3] = assay: Anti-apoptotic activity against H2O2-induced apoptosis in rat PC12 cells assessed as dead cells at 10 uM preincubated for 12 hrs followed by replacement with fresh media and H2O2 stimulation for 12 hrs by Annexin-V/7-AAD staining based flow cytometry (Rvb=4.1%); assay type: functional
[4] = molecular target: T1, Glycogen synthase kinase-3 beta (Homo sapiens, UniProt P49841); assay: Inhibition of human GSK-3beta overexpressed in human HEK293T cells assessed as decrease in Tau phosphorylation at s396 at 0.625 to 10 uM incubated for 24 hrs by Western blot analysis; assay type: cell-based; conditions: dose 0.625-10 µM
Target sequence in this assay (P49841 whole entry, looked up): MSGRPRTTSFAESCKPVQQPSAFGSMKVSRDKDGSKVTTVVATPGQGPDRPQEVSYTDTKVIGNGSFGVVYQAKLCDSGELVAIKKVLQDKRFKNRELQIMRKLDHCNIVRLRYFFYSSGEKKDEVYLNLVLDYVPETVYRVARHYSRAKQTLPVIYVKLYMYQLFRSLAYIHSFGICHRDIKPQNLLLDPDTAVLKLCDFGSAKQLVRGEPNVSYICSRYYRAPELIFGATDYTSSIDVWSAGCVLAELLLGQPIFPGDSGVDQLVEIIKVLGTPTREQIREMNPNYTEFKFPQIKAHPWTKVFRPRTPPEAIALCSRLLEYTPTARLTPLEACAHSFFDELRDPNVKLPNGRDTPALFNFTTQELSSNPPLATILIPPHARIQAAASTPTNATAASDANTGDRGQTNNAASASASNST

[5] = molecular target: T1, Glycogen synthase kinase-3 beta; assay: Inhibition of human GSK-3beta overexpressed in human HEK293T cells assessed as reduction in GSK-3beta expression level at 0.625 to 10 uM incubated for 24 hrs by Western blot analysis; assay type: cell-based; conditions: dose 0.625-10 µM
Target sequence in this assay (P49841 whole entry, looked up): as above

PC-12 [6] = assay: Neuroprotective activity against H2O2-induced cytotoxicity in rat PC12 cells assessed as increase in cell viability at 10 uM pretreated with Brusatol for 1hrs and preincubated for 12 hrs followed by replacement with fresh media and H2O2 stimulation for 12 hrs by MTT assay; assay type: functional, cell-based
[7] = molecular target: T1, Glycogen synthase kinase-3 beta; assay: Inhibition of recombinant human GSK-3beta using YRRAAVPPSPSLSRHSSPHQ(pS)EDEE as substrate preincubated for 15 mins followed by substrate addition and measured after 60 mins by Kinase-Glo luminescent kinase assay
Target sequence in this assay (P49841 whole entry): as the sequence (P49841 whole entry, looked up) above

PC-12 [8] = assay: Neuroprotective activity against rat PC12 cells assessed as decrease in H2O2-induced intracellular Ca2+ level at 2.5 uM preincubated for 12 hrs followed by replacement with fresh media and H2O2 stimulation for 12 hrs by Fluo-3 AM based flow cytometry relative to control; assay type: functional; parameters: scale not given: the % may be the effect or the level left
PC12 [9] = assay: Activation of Nrf2-ARE pathway in rat PC-12 cells assessed as increase in Nrf2 expression level in cytoplasm at 10 uM incubated for 3 hrs by Western blot analysis; assay type: cell-based; conditions: filed as activator
Mus musculus [10] = assay: (§1) Antialzheimer activity in okadaic acid-induced cognitive impairment ICR mouse model assessed as path tracing at 0.08 to 0.24 mg/kg, iv twice at 3days interval before and after okadaic acid stimulation measured upto 14 days by Morris water maze test relative to control; assay type: functional, organism-based; conditions: dose 0.08-0.24 mg/kg, time <= 14.0 day
PC-12 [11] = assay: Anti-apoptotic activity against H2O2-induced apoptosis in rat PC12 cells assessed as early apoptotic cells at 10 uM preincubated for 12 hrs followed by replacement with fresh media and H2O2 stimulation for 12 hrs by Annexin-V/7-AAD staining based flow cytometry (Rvb=0.8%); assay type: functional
PC-12 [12] = assay: Cytotoxicity against rat PC12 cells assessed as cell viability at 6.25 to 100 uM incubated for 24 hrs by MTT assay; assay type: toxicity, cell-based; conditions: pc-12, 24 h, dose 6.25-100 µM
PC12 [13] = assay: Activation of Nrf2-ARE pathway in rat PC-12 cells assessed as increase in Nrf2 expression level in nucleus at 10 uM incubated for 3 hrs by Western blot analysis; assay type: cell-based; conditions: filed as activator
PC-12 [14] = assay: Anti-apoptotic activity against H2O2-induced apoptosis in rat PC12 cells assessed as late apoptotic cells at 5 uM preincubated for 12 hrs followed by replacement with fresh media and H2O2 stimulation for 12 hrs by Annexin-V/7-AAD staining based flow cytometry (Rvb=2.2 %); assay type: functional
PC-12 [15] = assay: Anti-apoptotic activity against H2O2-induced apoptosis in rat PC12 cells assessed as living cells at 5 uM preincubated for 12 hrs followed by replacement with fresh media and H2O2 stimulation for 12 hrs by Annexin-V/7-AAD staining based flow cytometry (Rvb=92.9%); assay type: functional
L02 = assay: Cytotoxicity against human L02 cells assessed as cell viability at 6.25 to 100 uM incubated for 24 hrs by MTT assay; assay type: toxicity, cell-based; conditions: l02, 24 h, dose 6.25-100 µM
PC12 [16] = assay: Activation of Nrf2-ARE pathway in rat PC-12 cells assessed as increase in Nrf2 expression level at 2.5 to 10 uM incubated for 12 hrs by Western blot analysis; assay type: cell-based; conditions: filed as activator, dose 2.5-10 µM
PC-12 [17] = assay: Neuroprotective activity against rat PC12 cells assessed as decrease in H2O2-induced intracellular ROS production at 2.5 to 10 uM preincubated for 12 hrs followed by replacement with fresh media and H2O2 stimulation for 12 hrs by DCFH-DA staining based flow cytometry; assay type: functional, cell-based; conditions: dose 2.5-10 µM
PC-12 [18] = assay: Neuroprotective activity against rat PC12 cells assessed as decrease in H2O2-induced mitochondrial membrane potential level at 2.5 uM preincubated for 12 hrs followed by replacement with fresh media and H2O2 stimulation for 12 hrs by JC-1 dye based flow cytometry (Rvb= 95.3%); assay type: functional; parameters: scale not given: the % may be the effect or the level left
PC-12 [19] = assay: Anti-apoptotic activity against H2O2-induced apoptosis in rat PC12 cells assessed as late apoptotic cells at 10 uM preincubated for 12 hrs followed by replacement with fresh media and H2O2 stimulation for 12 hrs by Annexin-V/7-AAD staining based flow cytometry (Rvb=2.2 %); assay type: functional
PC-12 [20] = assay: Anti-apoptotic activity against H2O2-induced apoptosis in rat PC12 cells assessed as dead cells at 5 uM preincubated for 12 hrs followed by replacement with fresh media and H2O2 stimulation for 12 hrs by Annexin-V/7-AAD staining based flow cytometry (Rvb=4.1%); assay type: functional
PC12 [21] = assay: Activation of Nrf2-ARE pathway in rat PC-12 cells assessed as increase in HO-1 expression level at 2.5 to 10 uM incubated for 6 hrs by Western blot analysis; assay type: cell-based; conditions: filed as activator, dose 2.5-10 µM
[22] = Toxicity in okadaic acid-induced cognitive impairment ICR mouse model assessed as swimming speed change at 0.08 to 0.24 mg/kg, iv twice at 3days interval before and after okadaic acid stimulation measured for 5 days by Morris water maze test; assay type: organism-based; conditions: in vivo, 120 h, dose 0.08-0.24 mg/kg, time 5 day
PC-12 [23] = assay: Neuroprotective activity against rat PC12 cells assessed as decrease in H2O2-induced mitochondrial membrane potential level at 5 uM preincubated for 12 hrs followed by replacement with fresh media and H2O2 stimulation for 12 hrs by JC-1 dye based flow cytometry (Rvb= 95.3%); assay type: functional; parameters: scale not given: the % may be the effect or the level left
PC12 [24] = assay: Activation of Nrf2-ARE pathway in rat PC-12 cells assessed as increase in GCLM expression level at 2.5 to 10 uM incubated for 24 hrs by Western blot analysis; assay type: cell-based; conditions: filed as activator, dose 2.5-10 µM
Mus musculus [25] = assay: as §1, with “increase in number of groups crossing virtual platform” for “path tracing”; assay type: functional, organism-based; conditions: dose 0.08-0.24 mg/kg, time <= 14.0 day
PC-12 [26] = assay: Neuroprotective activity against H2O2-induced cytotoxicity in rat PC12 cells assessed as increase in cell viability at 10 uM preincubated for 12 hrs followed by replacement with fresh media and H2O2 stimulation for 12 hrs by MTT assay; assay type: functional, cell-based
PC12 [27] = assay: Activation of Nrf2-ARE pathway in rat PC-12 cells assessed as increase in TrxR1 expression level at 2.5 to 10 uM incubated for 6 hrs by Western blot analysis; assay type: cell-based; conditions: filed as activator, dose 2.5-10 µM

Question: With COc1ccc(-c2ocnc2C(=O)NCCCc2ccc(NC(=O)/C=C/c3cc(C(C)(C)C)c(O)c(C(C)(C)C)c3)cc2)cc1Cl as the compound, how does the Activity (PC-12 [1]) read?
Answer: The Activity was 90.7%.

Question: What about the Activity (PC-12 [2]) of the same compound?
Answer: Its Activity is 31.1%.

Question: What about the Activity (PC-12 [3]) of the same compound?
Answer: The Activity was 1.3%.

Question: What about the inhibition [4] of the same compound?
Answer: Its inhibition is “Dose-Dependent Effect”.

Question: And the inhibition [5]?
Answer: The inhibition was “Dose-Dependent Effect”.

Question: And the Activity (PC-12 [6])?
Answer: Its Activity is “inactive”.

Question: And the IC50 [7]?
Answer: The IC50 was 0.25 nM.

Question: And the Activity (PC-12 [8])?
Answer: Its Activity is 24.5%.

Question: What about the Activity (PC12 [9]) of the same compound?
Answer: The Activity was “Active”.

Question: What about the Activity (Mus musculus [10]) of the same compound?
Answer: The Activity was “Active”.

Question: What about the Activity (PC-12 [11]) of the same compound?
Answer: Its Activity is 2%.

Question: And the Activity (PC-12 [12])?
Answer: Its Activity is “Non-Toxic”.

Question: And the Activity (PC12 [13])?
Answer: The Activity was “Active”.

Question: What about the Activity (PC-12 [14]) of the same compound?
Answer: The Activity was 12.9%.

Question: What about the Activity (PC-12 [15]) of the same compound?
Answer: Its Activity is 93.1%.

Question: What about the Activity (L02) of the same compound?
Answer: Its Activity is “Non-Toxic”.

Question: And the Activity (PC12 [16])?
Answer: The Activity was “Dose-Dependent Effect”.

Question: And the Activity (PC-12 [17])?
Answer: The Activity was “Dose-Dependent Effect”.

Question: What about the Activity (PC-12 [18]) of the same compound?
Answer: Its Activity is 68.4%.

Question: And the Activity (PC-12 [19])?
Answer: The Activity was 6%.

Question: And the Activity (PC-12 [20])?
Answer: Its Activity is 2.5%.

Question: What about the Activity (PC12 [21]) of the same compound?
Answer: The Activity was “Dose-Dependent Effect”.

Question: And the Activity [22]?
Answer: The Activity was “Non-Toxic”.

Question: And the Activity (PC-12 [23])?
Answer: The Activity was 72.6%.

Question: And the Activity (PC12 [24])?
Answer: The Activity was “Dose-Dependent Effect”.

Question: And the Activity (Mus musculus [25])?
Answer: The Activity was “Active”.

Question: And the Activity (PC-12 [26])?
Answer: The Activity was “Active”.

Question: And the Activity (PC12 [27])?
Answer: The Activity was “Dose-Dependent Effect”.
